Values of other authors, collected in patent US20080318886A1, “Methods of Increasing Cancer Sensitivity to Chemotherapeutic Agents Using Chimeric ISF35” (priority 2006, published 2008).

Test system: CLL
Settings: CLL patients, first line treatment

For `Nc1nc(F)nc2c1ncn2[C@@H]1O[C@H](CO)[C@@H](O)[C@@H]1O` [Fludaribine], the overall response rate is listed as about 70%.
